Laboratory results: patent US11192851B2, “Crystal of L-alanyl-L-glutamine and method for producing same” (KYOWA HAKKO BIO CO., LTD., priority 2016, dated 2021)
Residues, ends and D or L forms follow the SMILES beside them.

Tests used:
Assay type in all cases: physicochemical
[1] = Loose specific volume of crystals (50 mL measuring cylinder, two-stage funnel); settings: crystal powder
Method: The loose specific volume refers to a value obtained by dividing volume occupied by a powder by the mass of the powder when a container is filled with the powder and the mass of the powder is measured. A crystal with a low loose specific volume is excellent in filling properties, and easy to handle in various processing steps, and also its transportation cost is low. Therefore, the loose specific volume is preferably low. The loose specific volume can be measured by a method comprising: dropping crystals to a 50 mL glass measuring cylinder via a two-stage glass funnel to make the volume of the crystal to be about 45 mL, and measuring the weight of the crystals. A value obtained by dividing the measured volume of the crystal by the weight is determined to be the loose specific volume.

[2] = Dense specific volume of crystals (after tapping the cylinder 100 times); settings: crystal powder, after tapping 100 times
Method: The dense specific volume refers to a value obtained by dividing volume of a powder by the mass of the powder, when a container is filled with the powder and the mass of the powder is measured and then a given impact is applied to the container. The dense specific volume can be measured by a method comprising: dropping a crystal to a 50 mL glass measuring cylinder via a two-stage glass funnel to make the volume of the crystal to be about 45 mL; measuring the weight of the crystal; then tapping the measuring cylinder up and down for 100 times; and measuring the volume occupied by the crystal. A value obtained by dividing the measured volume of the crystal by the weight thereof is determined to be the dense specific volume.

[3] = Angle of repose (Multi Tester MT-1001T); settings: crystal powder, sieve 1.18 mm, vibration width 0.7 to 0.8 mm
Method: The angle of repose refers to an angle formed by a generating line of a cone formed with a powder when the powder is allowed to gently fall onto the horizontal plane through a kind of funnel and a horizontal plane.
[Measurement Conditions for Angle of Repose]
Vibration width: 0.7 to 0.8 mm
The angle-of-repose table is rotated without being given vibration, angles are read at three sites, and an arithmetic mean value of the angles is determined to be the angle of repose.

[4] = Angle of rupture (Multi Tester MT-1001T); settings: crystal powder, after three impacts
From the text: The angle of rupture refers to an angle formed by a generating line of a cone, formed when a given impact is indirectly applied to a cone formed with a powder by allowing the powder to gently fall onto the horizontal plane through a kind of funnel, and a horizontal plane.
[Specific Example of Measurement Method for Angle of Rupture]
The operation is repeated for three times. Angles are read at three sites by a method similar to the measurement method for the angle of repose, and an arithmetic mean value of the angles is determined to be the angle of rupture.

[5] = Drying loss (water content of crystal by thermal analysis, TG/DTA); settings: water content in the crystals as loss on drying of the thermal analysis
Method: The crystal of L-alanyl-L-glutamine can be confirmed to be a crystal of nonhydrate when the water content, which is measured by using a thermal analysis according to a method described in the following measurement example, is generally 3.0 wt % or less, preferably 2.5 wt % or less, and more preferably 2.0 wt % or less.
[Measurement Example of Water Content of Crystal according to Thermal Analysis]
Used equipment: EXSTAR 6000 TG/DTA 6200 (manufactured by Seiko Instruments Inc.)
Measurement conditions: Temperature increases from 20° C. to 30° C. at 20° C./min→Hold for 15 minutes at 30° C.→Temperature increases from 30° C. to 250° C. at 5° C./min
Nitrogen flow rate: 300 mL/min
About the known crystal obtained by the method described in Japanese Patent No. 4931801 and the crystals of L-alanyl-L-glutamine nonhydrate of the present invention obtained in Examples 10 to 12, the results, which measured in terms of the loose specific volume, the dense specific volume, the angle of repose, the angle of rupture, and the water content in the crystals as loss on drying of the thermal analysis, are shown in Table 17.

| Compound | Loose specific volume [1] [mL/g] | Dense specific volume [2] [mL/g] | Angle of repose [3] [°] | Angle of rupture [4] [°] | Drying loss [5] [%] |
| --- | --- | --- | --- | --- | --- |
| CCO.C[C@H](N)C(=O)N[C@@H](CCC(N)=O)C(=O)O [Example 1, L-alanyl-L-glutamine n-ethanolate] (H-Ala-Gln-OH) | 2.55 | 2.08 | 39.7 | 34.6 |  |
| CCO.C[C@H](N)C(=O)N[C@@H](CCC(N)=O)C(=O)O [Example 2 (95° C. vacuum drying), L-alanyl-L-glutamine n-ethanolate] (H-Ala-Gln-OH) | 2.47 | 1.88 | 41.2 | 35.0 |  |
| CCO.C[C@H](N)C(=O)N[C@@H](CCC(N)=O)C(=O)O [Example 4 (25° C. vacuum drying), L-alanyl-L-glutamine n-ethanolate] (H-Ala-Gln-OH) | 3.23 | 2.32 | 39.4 | 35.1 |  |
| CCO.C[C@H](N)C(=O)N[C@@H](CCC(N)=O)C(=O)O [Example 4 (95° C. vacuum drying), L-alanyl-L-glutamine n-ethanolate] (H-Ala-Gln-OH) | 3.61 | 2.21 | 42.5 | 38.6 |  |
| C[C@H](N)C(=O)N[C@@H](CCC(N)=O)C(=O)O [Example 5, L-alanyl-L-glutamine nonhydrate] (H-Ala-Gln-OH) | 2.60 | 2.28 | 40.2 | 34.7 |  |
| C[C@H](N)C(=O)N[C@@H](CCC(N)=O)C(=O)O.O.O [Example 7, L-alanyl-L-glutamine dihydrate] (H-Ala-Gln-OH) | 3.27 | 2.73 | 43.8 | 38.8 |  |
| C[C@H](N)C(=O)N[C@@H](CCC(N)=O)C(=O)O [Example 10, L-alanyl-L-glutamine nonhydrate] (H-Ala-Gln-OH) | 3.69 | 2.59 | 46.4 | 39.5 | 1.9 |
| C[C@H](N)C(=O)N[C@@H](CCC(N)=O)C(=O)O [Example 11, L-alanyl-L-glutamine nonhydrate] (H-Ala-Gln-OH) | 3.65 | 2.84 | 42.8 | 38.0 | 1.9 |
| C[C@H](N)C(=O)N[C@@H](CCC(N)=O)C(=O)O [Example 12, L-alanyl-L-glutamine nonhydrate] (H-Ala-Gln-OH) | 3.07 | 2.37 | 44.7 | 41.4 | 0.3 |
| C[C@H](N)C(=O)N[C@@H](CCC(N)=O)C(=O)O [Patent No. 4931801 (nonhydrate), L-alanyl-L-glutamine nonhydrate, reference compound] (H-Ala-Gln-OH) | 5.27 | 2.66 | 50.9 | 46.0 | 0.2 |
